Strand notation (5' to 3'): a small letter for the sugar, then the base; units joined by * are phosphorothioate-linked, units joined directly phosphodiester-linked; [ ] holds rarer units or linkages, { } end groups; capitals alone tell only the bases. e = 2'-O-(2-methoxyethyl) (MOE); [5mC] = 5-methylcytosine; d = 2'-deoxy (DNA)
Columns and labels:
[1] = tested on: mouse RANKL mRNA; assay: Antisense inhibition of mouse RANKL mRNA in C2C12 cells: dose response (Table 5); assay type: cell-based; settings: relative to untreated control
Description: Cells were seeded into 24-well plates (Falcon-353047 at a density of ˜10,000 cells/cm^2 for use in antisense oligonucleotide transfection.
Cells are treated and data are obtained in triplicate. […] Cells were harvested 16-24 hours after oligonucleotide treatment.
Probes and primers to mouse RANKL were designed to hybridize to a mouse RANKL sequence, using published sequence information (GenBank accession number AF013170.1, incorporated herein as SEQ ID NO:ll). For mouse RANKL the PCR primers were: • forward primer: […] (SEQ ID NO:12) • reverse primer: […] (SEQ ID NO: 13) and • the PCR probe was: FAM-[…]-TAMRA (SEQ ID NO: 14) where FAM is the fluorescent reporter dye and TAMRA is the quencher dye. For mouse GAPDH the PCR primers were: • forward primer: […](SEQ ID NO:15) • reverse primer: […](SEQ ID NO:16) and the • PCR probe was: 5′ JOE-[…]-TAMRA 3′ (SEQ ID NO: 17) where JOE is the fluorescent reporter dye and TAMRA is the quencher dye.
In accordance with the present invention, a subset of the antisense oligonucleotides in Example 16 was further investigated in dose-response studies. The oligonucleotides used in this investigation were ISIS 180812 (SEQ ID NO: 178), ISIS 180814 (SEQ ID NO: 180), ISIS 180819 (SEQ ID NO: 185), ISIS 180828 (SEQ ID NO: 194) and the control oligonucleotide ISIS 101757 ([…], SEQ ID NO: 355). […] All cytidine residues are 5-methylcytidines.
C2C12 cells were treated with the oligonucleotides at 10, 50, 75, 100, and 150 nM as described in other examples herein. […] The results are expressed as percent inhibition relative to the untreated control. The data, shown in Table 5, are averages from two experiments and illustrate the oligonucleotides of the present invention are able to downregulate RANKL mRNA expression in a dose-dependent manner.

[2] = Serum calcium concentration after PTH infusion in mice: specificity and dose response of RANK antisense oligonucleotide (Table 15); assay type: in vivo, mouse; settings: for serum calcium: then 24 h PTH
Description: (§1) In accordance with the present invention, the specificity of RANK inhibition by a RANK antisense oligonucleotide was compared to that of an 8-base pair mismatch oligonucleotide.
(§2) ISIS 181080 ([…], SEQ ID NO: 357) is an antisense oligonucleotide targeted to mouse RANK. ISIS 208565 ([…], SEQ ID NO: 358) is an 8-base pair mismatch oligonucleotide. […] All cytidine residues are 5-methylcytidines.
(§3) Female Swiss-Webster mice (5-8 wks old) fed a low-calcium diet were treated for two weeks with either ISIS 181080 or ISIS 208565. The dose of oligonucleotide was either 40 mg/kg, 30 mg/kg, 20 mg/kg, or 10 mg/kg. After the 2-week treatment with oligonucleotides, the mice were infused with PTH by subcutaneously implanted mini-pumps at a dose of 4 ug/100 g over 24 hours. A group of control mice were dosed with either saline, PTH alone (1 ug/100 g/6 hr) or calcitonin (400 ng) plus PTH (1 ug/100 g/6 hr). After 24 hours of PTH infusion (total PTH delivery of 4 ug/100 g), the mice were sacrificed and measurements were made of serum calcium with the Sigma Diagnostics Calcium Kit (Sigma-Aldrich) and RANK mRNA expression in proximal tibia (as described in other examples herein). The results shown in Table 15 are the average from four mice per group. Percent inhibition of RANK mRNA is normalized to PTH treatment alone. […] The data also illustrate that these effects are occurring due to an antisense mechanism.

[3] = tested on: RANK mRNA; assay: Antisense inhibition of RANK mRNA expression in proximal tibia after PTH infusion in mice: specificity and dose response (Table 15); assay type: in vivo, mouse; settings: for RANK mRNA % inhibition (normalized to PTH): then 24 h PTH, proximal tibia
Description: as §1, §2, §3

[4] = tested on: mouse RANKL mRNA; assay: Antisense inhibition of mouse RANKL mRNA levels in C2C12 cells, quantitative real-time PCR (Table 2); assay type: cell-based; parameters: concentration or dose not given beside the values; settings: averages from three experiments
Outline: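 C2C12 cells seeded at ~10,000 cells/cm^2, treated with antisense oligonucleotides (all C as 5-methylcytidine) in triplicate and harvested 16-24 h later. Mouse RANKL mRNA quantified by real-time RT-PCR with a FAM/TAMRA probe, with mouse GAPDH (JOE/TAMRA probe) as reference.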

[5] = Serum calcium concentration 24 hours after PTH infusion in mice treated with RANKL antisense oligonucleotides (Table 10); assay type: in vivo, mouse; settings: mice
Description: In accordance with the present invention, the effect of antisense oligonucleotide inhibition on PTH-induced serum calcium concentration increase was measured in mice. The serum calcium concentration in mice was measured as a function of antisense oligonucleotide dose. Calcitonin, a known bone antiresorptive agent, was used as a control for antiresorptive activity.
Female Swiss-Webster (5-8 wks old) mice fed a low-calcium diet were dosed subcutaneously for two weeks with either the oligonucleotides ISIS 180819 (SEQ ID NO: 185) or 180814 (SEQ ID NO: 180) at concentrations of 5 mg/kg, 15 mg/kg, 30 mg/kg, or 40 mg/kg. A control group of mice were treated with calcitonin (400 ng) plus PTH (1 ug/100 g/6 hr), PTH alone (1 ug/100 g/6 hr) or saline. Treatment with oligonucleotides was followed with infusion of PTH by subcutaneously implanted mini-pumps at a dose of 1 ug/100 g/6 hr. After 24 hours of PTH infusion (total PTH delivery of 4 ug/100 g), the mice were sacrificed and the serum calcium concentration was measured with the Sigma Diagnostics Calcium Kit (Sigma-Aldrich). The data, summarized in Table 10 are averages from eight mice. Percent mRNA inhibition is normalized to PTH alone treatment.

[6] = tested on: RANKL mRNA; assay: Antisense inhibition of RANKL mRNA expression followed by PTH treatment in primary mouse osteoblast cells: dose response (Table 8); assay type: cell-based; settings: primary mouse osteoblast cells; 63 nM, 125 nM, 250 nM, or 500 nM, 24 hours, FuGENE 6; 10 nM PTH last 2 hours
Description: Primary mouse osteoblasts were prepared from calvaria of neonatal mice purchased from Charles River Laboratories. […] Cells were not passaged. Cells were seeded onto 6-well plates (Falcon-Primaria #353846) at a density of 50,000 cells/well for use in antisense oligonucleotide transfection.
In a further embodiment of this invention, the effect of RANKL antisense oligonucleotides and PTH treatment on the expression of RANKL was determined in primary osteoblast cells isolated from mice skull caps.
ISIS 143624 ([…], SEQ ID NO: 348) was used as a control oligonucleotide. […] All cytidine residues are 5-methylcytidines.
Primary osteoblastic cells were transfected for 24 hours with either Isis 180819 (SEQ ID NO: 185) or the control oligo ISIS 143624 (SEQ ID NO: 348) at a dose of […], 125 nM, 250 nM, or 500 nM by the methods described herein but using the transfection reagent FuGENE 6 (Roche Applied Science, Indianapolis, Ind.). During the last 2 hours of oligonucleotide transfection, the cells were treated with 10 nM PTH. The RNA was then harvested and the expression levels of […] were measured by the methods described herein. The results are expressed as percent inhibition relative to PTH treatment alone and represent the average from three experiments.

[7] = Serum calcium after RANK antisense oligonucleotide treatment and PTH infusion: time course (Table 13); assay type: in vivo, mouse; settings: control mice, no oligonucleotide; PTH 1 ug/100 g/6 hr 24 h, calcitonin (400 ug)
Description: In accordance with the present invention, ISIS 181071 was administered to mice for different time periods to evaluate its ability to inhibit RANK expression and PTH-induced serum calcium concentration increase as a function of oligonucleotide treatment time.
Female Swiss-Webster mice (5-8 wks old) were fed a low-calcium diet and received daily subcutaneous injections of 30 mg/kg of ISIS 181071 (SEQ ID NO: 356) for 2, 3, 5, 7, 10, 14, or 21 days. At the end of the oligonucleotide treatment period, mice were infused with PTH by subcutaneously implanted mini-pumps at a dose of 1 ug/100 g/6 hr. A group of control mice were dosed with either saline, PTH alone (1 ug/100 g/6 hr) or calcitonin (400 ug) plus PTH (1 ug/100 g/6 hr). Following 24 hours of PTH infusion (total PTH delivery of 4ug/100 g), the mice were sacrificed and measurements were made of serum calcium with the Sigma Diagnostics Calcium Kit (Sigma-Aldrich) and RANK mRNA expression in the proximal tibia (as described in other examples herein). Percent RANK mRNA inhibition is normalized to PTH alone treatment.

[8] = mice, two weeks 10, 20, 30 or 40 mg/kg, 24 hours PTH infusion

101757 (antisense eA*eG*eG*eT*eG*d[5mC]*dT*d[5mC]*dA*dG*dG*dA*d[5mC]*dT*d[5mC]*e[5mC]*eA*eT*eT*eT) [compound 101757]
% Inhibition of RANKL mRNA ([1]; 50 nM oligonucleotide): 17%
% Inhibition of RANKL mRNA ([1]; 100 nM oligonucleotide): 13%

TCCTCGAGAGGTCTCCTTGC (antisense eT*e[5mC]*e[5mC]*eT*e[5mC]*dG*dA*dG*dA*dG*dG*dT*d[5mC]*dT*d[5mC]*e[5mC]*eT*eT*eG*e[5mC]) [ISIS 208565, 8-base pair mismatch oligonucleotide, 2′-MOE gapmer, reference compound]
serum calcium ([2]; 10 mg/kg two weeks): 21 mg/dL
serum calcium ([2]; 20 mg/kg two weeks): 17 mg/dL
serum calcium ([2]; 30 mg/kg two weeks): 18 mg/dL
serum calcium ([2]; 40 mg/kg two weeks): 16 mg/dL
RANK mRNA % inhibition (normalized to PTH) ([3]; 10 mg/kg two weeks): 0%
RANK mRNA % inhibition (normalized to PTH) ([3]; 20 mg/kg two weeks): 0%
RANK mRNA % inhibition (normalized to PTH) ([3]; 30 mg/kg two weeks): 19%
RANK mRNA % inhibition (normalized to PTH) ([3]; 40 mg/kg two weeks): 7%

180812 (antisense eT*e[5mC]*e[5mC]*eG*eG*dA*dT*d[5mC]*d[5mC]*dA*dG*d[5mC]*dA*dG*dG*eG*eA*eA*eG*eG) [compound 180812]
% INHIB (inhibition of mouse RANKL mRNA levels) [4]: 47%
% Inhibition of RANKL mRNA ([1]; 10 nM oligonucleotide): 0%
% Inhibition of RANKL mRNA ([1]; 50 nM oligonucleotide): 5%
% Inhibition of RANKL mRNA ([1]; 75 nM oligonucleotide): 13%
% Inhibition of RANKL mRNA ([1]; 100 nM oligonucleotide): 20%
% Inhibition of RANKL mRNA ([1]; 150 nM oligonucleotide): 45%

calcitonin [reference compound]
inhibition of PTH-induced serum calcium concentration ([5]; PTH infusion, n=8): 66 % inhibition

180828 (antisense eT*eT*eT*eA*eT*dT*dT*dT*dG*d[5mC]*dT*dT*dG*d[5mC]*dA*eT*eA*eG*eT*eT) [compound 180828]
% INHIB (inhibition of mouse RANKL mRNA levels) [4]: 44%
% Inhibition of RANKL mRNA ([1]; 10 nM oligonucleotide): 31%
% Inhibition of RANKL mRNA ([1]; 50 nM oligonucleotide): 43%
% Inhibition of RANKL mRNA ([1]; 75 nM oligonucleotide): 23%
% Inhibition of RANKL mRNA ([1]; 100 nM oligonucleotide): 31%
% Inhibition of RANKL mRNA ([1]; 150 nM oligonucleotide): 40%

TGCTCAGCGAGTGTGCCAGC (sugars by position and backbone not given here; further chemistry not fully specified) [ISIS 143624, control oligonucleotide, 2′-MOE gapmer, reference compound]
inhibition of PTH-induced increase in RANKL mRNA expression [6]: unable to reduce RANKL mRNA levels

GAGCTCCCGGACCCTGAGGC (listed as DNA, chemistry not given here) [ISIS 181080, antisense oligonucleotide targeted to mouse RANK]
serum calcium ([2]; 10 mg/kg two weeks): 23 mg/dL
serum calcium ([2]; 20 mg/kg two weeks): 17 mg/dL
serum calcium ([2]; 30 mg/kg two weeks): 15 mg/dL
serum calcium ([2]; 40 mg/kg two weeks): 16 mg/dL
PTH-induced rise in serum calcium concentration [2, 8]: lessens the PTH-induced rise in serum calcium concentration
RANK mRNA % inhibition (normalized to PTH) ([3]; 10 mg/kg two weeks): 47%
RANK mRNA % inhibition (normalized to PTH) ([3]; 20 mg/kg two weeks): 38%
RANK mRNA % inhibition (normalized to PTH) ([3]; 30 mg/kg two weeks): 48%
RANK mRNA % inhibition (normalized to PTH) ([3]; 40 mg/kg two weeks): 65%
expression of RANK mRNA in proximal tibia [3, 8]: inhibits expression of RANK mRNA in vivo

180814 (antisense eG*eT*e[5mC]*eT*eT*dA*d[5mC]*dA*d[5mC]*dA*dT*dG*dT*dA*dT*eA*eG*eA*e[5mC]*eA) [compound 180814]
% INHIB (inhibition of mouse RANKL mRNA levels) [4]: 66%
% Inhibition of RANKL mRNA ([1]; 10 nM oligonucleotide): 12%
% Inhibition of RANKL mRNA ([1]; 50 nM oligonucleotide): 14%
% Inhibition of RANKL mRNA ([1]; 75 nM oligonucleotide): 61%
% Inhibition of RANKL mRNA ([1]; 100 nM oligonucleotide): 70%
% Inhibition of RANKL mRNA ([1]; 150 nM oligonucleotide): 81%
PTH-induced increase in serum calcium concentration ([5]; s.c. two weeks 5, 15, 30 or 40 mg/kg, 24 hours PTH infusion): lessen the PTH-induced increase in serum calcium concentration

B1: PTH alone (peptide, UniProt P01270 32-115, looked up)
Parathyroid hormone: SVSEIQLMHNLGKHLNSMERVEWLRKKLQDVHNFVALGAPLAPRDAGSQRPRKKEDNVLVESHEKSLGEADKADVNVLTKAKSQ
Serum calcium concentration [7]: 21 mg/dL

Source: patent US20050060764A1, “Mouse model for bone metabolism” (priority 2003, published 2005)
